Assay [1] concerns S. aureus (ATCC 29213). Nature of the assay: microbe, parasite or virus in culture. The assay is classed as cell-based, Staphylococcus aureus. The note with it: ATCC 29213; read-out: Minimum Inhibitory Concentration. An excerpt:
(§1) As we were primarily interested in the clinical potential of cathelicidin-PY (1) and its analogues 2–9, cation-adjusted Mueller-Hinton broth (CAMHB) was implemented during our in vitro antimicrobial screening towards bacteria. However, non-cation adjusted Mueller Hinton broth (MHB) was also implemented to evaluate the cation sensitivity of these AMPs. In each medium, compounds 1–9 were subjected to minimum inhibitory concentration (MIC) assays with E. coli (ATCC 25922), P. aeruginosa (SVB-B9), and S. aureus (ATCC 29213), in accordance with CLSI microbroth dilution protocols (Table 1). It is noteworthy, however, that the initial report of cathelicidin-PY’s isolation documented MIC assays performed in Luria Broth (LB). Furthermore, antifungal activity towards C. albicans was investigated.
(§2) Staphylococcus aureus ATCC 29213, Pseudomonas aeruginosa (SVB-B9) (type strain), and Escherichia coli ATCC 25,922 were grown in either non-cation-adjusted or cation-adjusted Mueller Hinton (MH) broth at 37 °C with shaking (200 rpm). MIC assays were performed in technical triplicate in accordance with the CLSI-recommended protocol. All assays were performed independently on three occasions, with the reported MIC defined as the lowest concentration for which agreement was observed consistently for all replicates.

The test system of assay [2] is C. albicans (SC5314). Nature of the assay: microbe, parasite or virus in culture. As to conditions: SC5314; read-out: Minimum Inhibitory Concentration. The assay is classed as cell-based, Candida albicans.
Text: as §1
Antimicrobial susceptibility of Candida albicans SC5314 (type strain) was assessed by broth microdilution in RPMI 1640 media in accordance with the CLSI recommended protocols. All assays were performed independently on three occasions, with the reported MIC defined as the lowest concentration for which agreement was observed consistently for all replicates.

Assay [3] has as its system Candida albicans. The note with it: isolation report; cited from earlier work. The source says: (§3) Furthermore, these have shown promising anti-inflammatory and specific immune modulatory capabilities in immunocytes, as well as antiviral activity against human immunodeficiency virus (HIV), influenza A virus (I ...
The subject of assay [4] is Escherichia coli. The note with it: isolation report, assays in Luria Broth (LB); cited from earlier work.
Text: as §3

The subject of assay [5] is Pseudomonas aeruginosa. The note with it: isolation report, assays in Luria Broth (LB); cited from earlier work.
Text: as §3

In assay [6] the test system is Staphylococcus aureus. As to conditions: isolation report, assays in Luria Broth (LB); cited from earlier work.
Text: as §3

The test system of assay [7] is E. coli (ATCC 25922). The assay is classed as cell-based, Escherichia coli. The note with it: 37 °C, technical triplicate, three independent occasions.
Text: as §1, §2

Assay [8] concerns P. aeruginosa (SVB-B9). Nature of the assay: microbe, parasite or virus in culture. The assay is classed as cell-based, Pseudomonas aeruginosa. The note with it: P. aeruginosa SVB-B9 type strain; non-cation-adjusted Mueller-Hinton broth (MHB); 37 °C; technical triplicate, three independent occasions; read-out: Minimum Inhibitory Concentration.
Text: as §1, §2

Converted amounts (≈) assume the structure as drawn. Like-named read-outs stand apart in the source and are kept apart here. Where a SMILES comes first, the peptide text is derived from it. Bridges are numbered along the chain shown (N, C = ends). Where only a bound is given, the exact number is not on record here.

As to `CC[C@H](C)[C@H](NC(=O)[C@H](Cc1c[nH]cn1)NC(=O)[C@H](CO)NC(=O)[C@@H](NC(=O)[C@@H](NC(=O)[C@@H](NC(=O)[C@@H](NC(=O)[C@H](CCCNC(=N)N)NC(=O)[C@H](CC(C)C)NC(=O)[C@H](CCCCN)NC(=O)[C@H](CCC(=O)O)NC(=O)[C@H](CCCCN)NC(=O)[C@H](CC(C)C)NC(=O)[C@H](CCCCN)NC(=O)[C@@H]1CSSC[C@H](NC(=O)[C@H](CCCCN)NC(=O)[C@@H](N)CCCNC(=N)N)C(=O)N[C@@H](CC(N)=O)C(=O)N[C@@H](Cc2ccccc2)C(=O)N[C@@H](CC(C)C)C(=O)N1)[C@@H](C)O)C(C)C)[C@@H](C)CC)[C@@H](C)O)C(=O)N[C@@H](CC(=O)O)C(=O)N[C@@H](CCCCN)C(=O)N[C@H](C(=O)N[C@@H](CC(C)C)C(=O)N[C@@H](CCCNC(=N)N)C(=O)N1CCC[C@H]1C(=O)N[C@@H](CCC(N)=O)C(=O)NCC(=O)O)C(C)C` [Compound 1, Cathelicidin-PY] (H-RKCNFLCKLKEKLRTVITSHIDKVLRPQG-OH; disulfide 3-7), the MIC in assay [1] was >64 µM; in assay [2] it was >64 µM; in assay [3], 1.37 µM (≈ 4.69 µg/mL); in assay [4] it was 1.37 µM (≈ 4.69 µg/mL); in assay [5], 5.48 µM (≈ 18.8 µg/mL); in assay [6], 2.74 µM (≈ 9.38 µg/mL).
In the case of “polymyxin B sulfate [reference compound]”, the “Minimum Inhibitory Concentration” value in assay [7] (cation-adjusted Mueller-Hinton broth (CAMHB)) and in assay [7] (non-cation-adjusted Mueller-Hinton broth (MHB)) was 1 µM each time. Further, the MIC in assay [8] is on record as 2 µM.

(Values after PMC9959817, “Flow-Based Fmoc-SPPS Preparation and SAR Study of Cathelicidin-PY Reveals Selective Antimicrobial Activity” (Molecules, 2023).)
